Key:
Assay type in all cases: biochemical
[1] = molecular target: T1, human JAK2 (Homo sapiens, UniProt O60674); assay: Method 2 (JAK2): mobility shift assay on Caliper LC3000 reader, 5 mM ATP; parameters: human JAK2 (amino acids 831-1132, PLAZA database pAZB0359) expressed in insect cells; GST (N); made in house; host or cells: insect cells; conditions: 0.3 nM JAK2 enzyme, 90 minutes, read-out: IC50 (JAK inhibitory activity, Method 2 (JAK2))
From the text: (§1) Alternatively, Janus kinase 2 (JAK2) activity may be determined by measuring the kinase's ability to phosphorylate a tyrosine residue within a peptide substrate using a mobility shift assay on a Caliper LC3000 reader (Caliper, Hopkinton, Mass.), which measures fluorescence of the phosphorylated and unphosphorylated substrate and calculates a ratiometric value to determine percent turnover.
(§2) To measure JAK2 kinase activity, an in-house purified enzyme may be used. The enzyme may be a N-terminal GST-tagged, recombinant, human JAK2 (amino acids 831-1132, PLAZA database pAZB0359) expressed in insect cells. After incubation of the kinase with a FAM labeled SRCtide substrate, adenosine triphosphate (ATP), and MgCl2 for 90 minutes at room temperature, the kinase reaction may be stopped by the addition of 36 mM ethylenediaminetetraacetic acid (EDTA). The reaction may be performed in 384 well microtitre plates and the reaction products may be detected using the Caliper LC3000 Reader.
Target sequence in this assay (O60674 831-1132): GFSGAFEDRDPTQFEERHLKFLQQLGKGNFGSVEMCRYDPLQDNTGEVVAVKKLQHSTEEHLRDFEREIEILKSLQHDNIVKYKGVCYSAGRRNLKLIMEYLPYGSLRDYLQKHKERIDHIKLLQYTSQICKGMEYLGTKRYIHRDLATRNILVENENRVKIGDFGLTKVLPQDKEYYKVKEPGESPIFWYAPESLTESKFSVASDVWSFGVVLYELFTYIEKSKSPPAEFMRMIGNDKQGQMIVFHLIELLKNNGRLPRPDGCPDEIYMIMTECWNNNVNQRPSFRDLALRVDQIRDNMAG

[2] = molecular target: T2, JAK1 (Homo sapiens, UniProt P23458); assay: Method 1 (JAK1): mobility shift assay on Caliper LC3000 reader; conditions: 3.5 nM JAK1 enzyme, 5 mM ATP, 90 minutes, room temperature; read-out: IC50 (JAK inhibitory activity, Method 1 (JAK1))
T2 construct: catalytic domain (amino acids 866-1154), GST-tagged, expressed in insect cells; GST; purchased Invitrogen; host or cells: insect cells
From the text: as §1, with “Janus” for “Alternatively, Janus”, “1 (JAK1)” for “2 (JAK2)”
To measure JAK1 kinase activity, a commercially available purified enzyme may be used. The enzyme may be a recombinant human, catalytic domain (amino acids 866-1154), GST-tagged, expressed in insect cells (Invitrogen, Carlsbad, Calif.). After incubation of the kinase with a FITC labeled JAK1 substrate, adenosine triphosphate (ATP), and MgCl2 for 90 minutes at room temperature, the kinase reaction may be stopped by the addition of 36 mM ethylenediaminetetraacetic acid (EDTA). The reaction may be performed in 384 well microtitre plates and the reaction products may be detected using the Caliper LC3000 Reader.

[3] = molecular target: T1, human JAK2; assay: Method 3 (JAK2): mobility shift assay on Caliper LC3000 reader, 15 μM ATP; parameters: human JAK2 (amino acids 831-1132, PLAZA database pAZB0359) expressed in insect cells; GST (N); made in house; host or cells: insect cells; conditions: 0.5 nM JAK2 enzyme, 90 minutes, read-out: IC50 (JAK inhibitory activity, Method 3 (JAK2))
Procedure: as §1, with “Janus” for “Alternatively, Janus”, “was” for “may be”
as §2, with “enzyme was” for “enzyme may be”, “enzyme was” for “enzyme may be a”, “reaction was” for “reaction may be”, “products were” for “products may be”
Target sequence in this assay (O60674 831-1132): as above

[4] = molecular target: T1, human JAK2; assay: Method 1 (JAK2): Amplified Luminescent Proximity Assay (Alphascreen); parameters: His6 (C); purchased Upstate Biotechnology; host or cells: baculovirus in Sf21 cells; conditions: 150 pM JAK2 enzyme, 5 mM ATP, 60 minutes, room temperature, read-out: IC50 (JAK inhibitory activity, Method 1 (JAK2))
From the text: JAK2 kinase activity may be determined by measuring the kinase's ability to phosphorylate synthetic tyrosine residues within a generic polypeptide substrate using an Amplified Luminescent Proximity Assay (Alphascreen) technology (PerkinElmer, 549 Albany Street, Boston, Mass.).
To measure JAK2 kinase activity, a commercially available purified enzyme may be used. The enzyme may be a C-terminal His6-tagged, recombinant, human JAK2, amino acids 808-end, (Genbank Accession number NM 004972) expressed by baculovirus in Sf21 cells (Upstate Biotechnology MA). After incubation of the kinase with a biotinylated substrate and adenosine triphosphate (ATP) for 60 minutes at room temperature, the kinase reaction may be stopped by the addition of 30 mM ethylenediaminetetraacetic acid (EDTA). The reaction may be performed in 384 well microtitre plates and the reaction products may be detected with the addition of streptavidin coated Donor Beads and phosphotyrosine-specific antibodies coated Acceptor Beads using the EnVision Multilabel Plate Reader after an overnight incubation at room temperature.
Target sequence in this assay (O60674 808-1132 limits assumed): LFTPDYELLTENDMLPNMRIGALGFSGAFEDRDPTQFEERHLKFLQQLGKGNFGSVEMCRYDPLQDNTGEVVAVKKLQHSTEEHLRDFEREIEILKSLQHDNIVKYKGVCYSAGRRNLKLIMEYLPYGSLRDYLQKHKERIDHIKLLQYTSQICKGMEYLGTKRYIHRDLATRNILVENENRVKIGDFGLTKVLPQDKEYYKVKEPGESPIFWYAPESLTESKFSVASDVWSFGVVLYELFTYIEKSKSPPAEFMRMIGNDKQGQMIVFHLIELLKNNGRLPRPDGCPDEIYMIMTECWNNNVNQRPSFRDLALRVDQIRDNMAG

T2 sequence (P23458 866-1154): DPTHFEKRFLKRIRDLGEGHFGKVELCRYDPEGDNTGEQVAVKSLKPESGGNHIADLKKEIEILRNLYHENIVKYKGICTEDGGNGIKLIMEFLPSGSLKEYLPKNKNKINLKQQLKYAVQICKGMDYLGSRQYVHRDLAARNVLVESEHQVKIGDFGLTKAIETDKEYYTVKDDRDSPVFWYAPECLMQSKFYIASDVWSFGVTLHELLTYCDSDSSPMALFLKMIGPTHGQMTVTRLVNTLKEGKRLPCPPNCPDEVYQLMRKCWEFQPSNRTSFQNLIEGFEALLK

SMILES | IC50 [1] [nM] | IC50 [2] [nM] | IC50 [3] [nM] | IC50 [4] [nM]
[2H]C1([2H])OC([2H])([2H])C([2H])([2H])N(c2nc(Nc3cn(C)cn3)nc(NC(C)c3ncc(F)cc3F)n2)C1([2H])[2H] (single isomer, unassigned) [Example 11a, N-[1-(3,5-Difluoropyridin-2-yl)ethyl]-N′-(1-methyl-1H-imidazol-4-yl)-6-(^2H8)morpholin-4-yl-1,3,5-triazine-2,4-diamine] | 986 | 780 |  | 
[2H]C1([2H])OC([2H])([2H])C([2H])([2H])N(c2nc(Nc3cn(C)cn3)nc(NC(C)c3ncc(F)cc3F)n2)C1([2H])[2H] (single isomer, unassigned) [Example 11b, N-[1-(3,5-Difluoropyridin-2-yl)ethyl]-N′-(1-methyl-1H-imidazol-4-yl)-6-(^2H8)morpholin-4-yl-1,3,5-triazine-2,4-diamine] | 21 | 15 |  | 
[2H]C([2H])([2H])n1cnc(Nc2nc(NC(C)c3ncc(F)cc3F)nc(N3CCOCC3)n2)c1 (single isomer, unassigned) [Example 12a, N-[1-(3,5-Difluoropyridin-2-yl)ethyl]-N′-[1-(^2H3)methyl-1H-imidazol-4-yl]-6-morpholin-4-yl-1,3,5-triazine-2,4-diamine] |  |  | 138 | 
[2H]C([2H])([2H])n1cnc(Nc2nc(NC(C)c3ncc(F)cc3F)nc(N3CCOCC3)n2)c1 (single isomer, unassigned) [Example 12b, N-[1-(3,5-Difluoropyridin-2-yl)ethyl]-N′-[1-(^2H3)methyl-1H-imidazol-4-yl]-6-morpholin-4-yl-1,3,5-triazine-2,4-diamine] |  |  | < 3 | 
[2H]C([2H])([2H])n1cnc(Nc2nc(NC(C)c3ncc(F)cc3F)nc(N3C([2H])([2H])C([2H])([2H])OC([2H])([2H])C3([2H])[2H])n2)c1 (single isomer, unassigned) [Example 13a, N-[1-(3,5-Difluoropyridin-2-yl)ethyl]-N′-[1-(^2H3)methyl-1H-imidazol-4-yl]-6-(^2H8)morpholin-4-yl-1,3,5-triazine-2,4-diamine] |  |  | 180 | 
[2H]C([2H])([2H])n1cnc(Nc2nc(NC(C)c3ncc(F)cc3F)nc(N3C([2H])([2H])C([2H])([2H])OC([2H])([2H])C3([2H])[2H])n2)c1 (single isomer, unassigned) [Example 13b, N-[1-(3,5-Difluoropyridin-2-yl)ethyl]-N′-[1-(^2H3)methyl-1H-imidazol-4-yl]-6-(^2H8)morpholin-4-yl-1,3,5-triazine-2,4-diamine] |  |  | < 3 | 
Cn1cnc(Nc2nc(NC(CNC(=O)OC(C)(C)C)c3ccc(F)cc3)nc(N3CCOCC3)n2)c1 (single isomer, unassigned) [Example 24a, tert-Butyl [2-(4-fluorophenyl)-2-({4-[(1-methyl-1H-imidazol-4-yl)amino]-6-morpholin-4-yl-1,3,5-triazin-2-yl}amino)ethyl]carbamate] | 73 | 83 |  | 
Cn1cnc(Nc2nc(NC(CNC(=O)OC(C)(C)C)c3ccc(F)cc3)nc(N3CCOCC3)n2)c1 (single isomer, unassigned) [Example 24b, tert-Butyl [2-(4-fluorophenyl)-2-({4-[(1-methyl-1H-imidazol-4-yl)amino]-6-morpholin-4-yl-1,3,5-triazin-2-yl}amino)ethyl]carbamate] | 1710 | 1020 |  | 
Cn1cnc(Nc2nc(NC(c3ccc(F)cc3)c3nccn3C)nc(N3CCOCC3)n2)c1 (single isomer, unassigned) [Example 25b, N-[(4-Fluorophenyl)(1-methyl-1H-imidazol-2-yl)methyl]-N′-(1-methyl-1H-imidazol-4-yl)-6-morpholin-4-yl-1,3,5-triazine-2,4-diamine] | > 30000 | 30000 |  | 
Cn1cnc(Nc2nc(NC(c3ccc(F)cc3)C3CCCC3)nc(N3CCOCC3)n2)c1 (stereo not shown) [Example 27, N-[Cyclopentyl(4-fluorophenyl)methyl]-N′-(1-methyl-1H-imidazol-4-yl)-6-morpholin-4-yl-1,3,5-triazine-2,4-diamine] | 966 | 1980 |  | 
C[C@H](Nc1nc(Nc2cn(C)cn2)nc(N2CCOCC2)n1)c1ccc(Cl)cc1 [Example 29, N-[(1S)-1-(4-Chlorophenyl)ethyl]-N′-(1-methyl-1H-imidazol-4-yl)-6-morpholin-4-yl-1,3,5-triazine-2,4-diamine] |  | 510 |  | 4
C[C@H](Nc1nc(Nc2cn(C)cn2)nc(N2CCOCC2)n1)c1ccc(F)cc1 [Example 30, N-[(1S)-1-(4-fluorophenyl)ethyl]-N′-(1-methyl-1H-imidazol-4-yl)-6-morpholin-4-yl-1,3,5-triazine-2,4-diamine] |  | 65 |  | < 3
CCn1cnc(Nc2nc(N[C@@H](C)c3ncc(F)cc3F)nc(N3CCOCC3)n2)c1 [Example 31, N-[(1S)-1-(3,5-difluoropyridin-2-yl)ethyl]-N′-(1-ethyl-1H-imidazol-4-yl)-6-morpholin-4-yl-1,3,5-triazine-2,4-diamine] |  |  |  | 234
C[C@H](Nc1nc(Nc2cn(C3CC3)cn2)nc(N2CCOCC2)n1)c1ncc(F)cn1 [Example 32, N-(1-Cyclopropyl-1H-imidazol-4-yl)-N′-[(1S)-1-(5-fluoropyrimidin-2-yl)ethyl]-6-morpholin-4-yl-1,3,5-triazine-2,4-diamine] |  |  |  | 393
C[C@H](Nc1nc(Nc2cn(CCc3ccsc3)cn2)nc(N2CCOCC2)n1)c1ncc(F)cn1 [Example 33, N-[(1S)-1-(5-Fluoropyrimidin-2-yl)ethyl]-6-morpholin-4-yl-N′-{1-[2-(3 thienyl)ethyl]-1H-imidazol-4-yl}-1,3,5-triazine-2,4-diamine] |  |  |  | 998
C[C@H](Nc1nc(Nc2cn(CC(F)(F)F)cn2)nc(N2CCOCC2)n1)c1ncc(F)cn1 [Example 34, N-[(1S)-1-(5-fluoropyrimidin-2-yl)ethyl]-6-morpholin-4-yl-N′-[1-(2,2,2-trifluoroethyl)-1H-imidazol-4-yl]-1,3,5-triazine-2,4-diamine] |  |  |  | 8320
CCn1cnc(Nc2nc(N[C@@H](C)c3ncc(F)cn3)nc(N3CCOCC3)n2)c1 [Example 35, N-(1-Ethyl-1H-imidazol-4-yl)-N′-[(1S)-1-(5-fluoropyrimidin-2-yl)ethyl]-6-morpholin-4-yl-1,3,5-triazine-2,4-diamine] |  |  |  | 23

Source: patent US20110183954A1, “TRICYCLIC 2,4-DIAMINO-L,3,5-TRIAZINE DERIVATIVES USEFUL FOR THE TREATMENT OF CANCER AND MYELOPROLIFERATIVE DISORDERS” (ASTRAZENECA AB, priority 2008, published 2011)
